IC50 and CC50 data for 17 molecules are collected here from article PMC12391934, “Palladium-Catalyzed C–H Arylation of Quinoidal Scaffolds Through Homogeneous and Heterogeneous Pathways: Advancing Toward Trypanocidal Prototypes” (ACS Omega, 2025).

Holding throughout (format): cell-based
Data set [1] deals with trypomastigote forms of Trypanosoma cruzi (Y strain). In words: Trypanocidal assay, bloodstream trypomastigotes, 5% of blood at 4 °C. As to conditions: 24 h, concentration giving 50% lysis of the parasites, mean ± SD of at least three experiments. The protocol: 5% of blood at 4 °C: For all the experiments, stock solutions of the compounds were prepared in dimethyl sulfoxide, with the final concentration of the solvent never exceeding 0.5%, concentration known to exert no toxicity to the parasite or host cells. Bloodstream trypomastigotes of Y strain were obtained from infected Swiss Webster mice at the peak of parasitemia by differential centrifugation process. The parasites (5 × 10^6 parasites per mL) plus 5% of blood were incubated at 4 °C for 24 h in 5% CO2 atmosphere in absence or presence of the compounds. […] At least three independent experiments were performed, and the mean and standard deviation were calculated. The standard drug Bz was used as control.

A short description of data set [2]: in vitro.
The subject of data set [3] is trypomastigote forms of Trypanosoma cruzi (Y strain). In words: Trypanocidal assay, bloodstream trypomastigotes, 0% of blood at 37 °C. As to conditions: 24 h, concentration giving 50% lysis of the parasites, mean ± SD of at least three experiments. The protocol: 0% of blood at 37 °C: The experiments were performed with the Y strain of T. cruzi.^11 Stock solutions of the compounds were prepared in dimethylsulfoxide (DMSO), with the final concentration of the latter in the experiments never exceeding 0.1%. […] Bloodstream trypomastigotes were obtained from infected Albino Swiss mice at the peak of parasitemia by differential centrifugation. The parasites were resuspended to a concentration of 10 × 10^6 cells/mL in DMES medium. This suspension (100 µL) was added to the same volume of each of the compounds, which had been previously prepared at twice the desired final concentrations. The incubation was performed in 96-well microplates (Nunc Inc., Rochester, USA) at 37 °C for 24 h. Benznidazole (Lafepe, Brazil), the standard drug for treatment of chagasic patients, was used as control.

Each structure is given as a SMILES string.

What is called IC50 is the concentration that inhibits the measured activity by half. The CC50 is the concentration that lowers cell viability or growth by half. A high value points to lower toxicity to the cells. `Cc1ccc(C2=CC(=O)c3ccccc3C2=O)cc1` [3a] had an IC50 in data set [1] of 36.3 ± 2.9 µM. This molecule also displayed a CC50 at 24 h in data set [2] of 24.6 ± 3.2 µM.

Molecule `Cc1cccc(C2=CC(=O)c3ccccc3C2=O)c1` [3b] registered an IC50 in data set [1] of 38.4 ± 1.3 µM. The molecule also came in with a CC50 at 24 h in data set [2] of 14.3 ± 0.5 µM.

Turning to `Cc1cc(C)cc(C2=CC(=O)c3ccccc3C2=O)c1` [3c], in data set [1], the IC50 was determined as 219 ± 13.4 µM.

`O=C1C=C(c2ccccc2)C(=O)c2ccccc21` [3d]: the values for the IC50 in data set [1] and in data set [3] were 25.2 ± 2.8 µM and 2.11 ± 0.1 µM, respectively. Half-maximal cytotoxicity in data set [2] (CC50 at 24 h) was put at 9.4 ± 2.2 µM.

Turning to `COc1ccc(C2=CC(=O)c3ccccc3C2=O)cc1` [3e], in data set [1], inhibition was half-maximal at 47.6 ± 0.6 µM (IC50). Moreover, half-maximal cytotoxicity in data set [2] (CC50 at 24 h) was put at 34 ± 0.5 µM.

For the molecule `COc1cccc(C2=CC(=O)c3ccccc3C2=O)c1` [3f], the IC50 in data set [1] is 30.7 ± 2.5 µM; in data set [3], 3.85 ± 0.01 µM. Moreover, it took 8.3 ± 1.3 µM to reach half-maximal cytotoxicity in data set [2] (CC50 at 24 h).

With `O=C1C=C(c2ccc(C(F)(F)F)cc2)C(=O)c2ccccc21` [3g], the 50% inhibitory concentration (IC50) in data set [1] was 30.6 ± 2.1 µM. This molecule registered a cytotoxic concentration (CC50) at 24 h in data set [2] of 6.8 ± 0.2 µM.

Molecule `COC(=O)c1ccc(C2=CC(=O)c3ccccc3C2=O)cc1` [3h] gave a half-inhibitory concentration (IC50) in data set [1] of 45.9 ± 4.3 µM. In data set [2], it took 30.6 ± 1 µM to reach half-maximal cytotoxicity (CC50 at 24 h).

For the molecule `Cc1cc([N+](=O)[O-])ccc1C1=CC(=O)c2ccccc2C1=O` [3i], in data set [1], the IC50 stood at 39.5 ± 4.1 µM. This molecule also had a CC50 at 24 h in data set [2] of 6.8 ± 0.6 µM.

On to `COc1ccc(C2=CC(=O)c3ccccc3C2=O)c([N+](=O)[O-])c1` [3j], for which, in data set [1], the IC50 came to 86.1 ± 7.2 µM.

For `COc1cc2c(cc1OC)C(=O)C(c1ccc(C)cc1)=CC2=O` [3k], the IC50 in data set [1] stood at 83.3 ± 4.8 µM.

In the case of `Cc1ccc(C2=CC(=O)c3c(O)cccc3C2=O)cc1` [3l], the IC50 came to 14.4 ± 2.1 µM in data set [1] and 0.31 ± 0.04 µM in data set [3]. In addition, the midpoint of cytotoxicity in data set [2], the CC50 at 24 h, lay at 4.8 ± 0.9 µM.

Consider `O=C1C(c2ccccc2)=CC(=O)c2c(O)cccc21` [3m], for which the IC50 in data set [1] is 12.7 ± 0.1 µM; in data set [3], 0.34 ± 0.03 µM. Besides, in data set [2], the CC50 at 24 h is less than 3.9 µM.

Take `O=C1C=C(c2ccccc2)C(=O)c2c(O)cccc21` [3n]: the IC50 is 13.7 ± 1.1 µM in data set [1] and 0.69 ± 0.03 µM in data set [3]. Half-maximal cytotoxicity in data set [2] (CC50 at 24 h) was put at 6.4 ± 0.5 µM.

In turn, `Cc1cc(C)cc(C2=CC(=O)c3cc4ccccc4cc3C2=O)c1` [3p] registered an IC50 in data set [1] greater than 250 µM.

In turn, `O=C1C=C(c2ccccc2)C(=O)c2cc3ccccc3cc21` [3q] showed an IC50 in data set [1] greater than 250 µM.

Turning to `Cc1ccc(C2=CC(=O)C=C(c3ccc(C)cc3)C2=O)cc1` [3v], the IC50 in data set [1] turned out to be 233 ± 12.4 µM.
